Measured values published in patent US20240122180A1, “FUNGICIDAL HALOMETHYL KETONES AND HYDRATES AND THEIR MIXTURES” (FMC Corporation, priority 2020, published 2024).

Experiments:
Assay type in all cases: in vivo
[1] = tested on: Phakopsora pachyrhizi (the causal agent of Asian soybean rust); assay: Test F: Compound 32 or 64 alone and in mixtures on soybean seedlings, observed (Obsd) and Colby expected (Exp) disease control; conditions: for pest or weed control at 138.129 ppm: chlorothalonil 138.129 ppm alone; for pest or weed control at 222.081 ppm: chlorothalonil 222.081 ppm alone; for pest or weed control at 45.86 ppm: pyraclostrobin 45.860 ppm alone; for pest or weed control at 137.503 ppm: pyraclostrobin 137.503 ppm alone; for pest or weed control at 29.673 ppm: metominostrobin 29.673 ppm alone; for pest or weed control at 86.003 ppm: metominostrobin 86.003 ppm alone; for pest or weed control at 10.165 ppm: prothioconazole 10.165 ppm alone; for pest or weed control at 16.339 ppm: prothioconazole 16.339 ppm alone; for pest or weed control at 37.333 ppm: cyproconazole 37.333 ppm alone; for pest or weed control at 64.883 ppm: cyproconazole 64.883 ppm alone; for pest or weed control at 78.393 ppm: fenpropidin 78.393 ppm alone; for pest or weed control at 161.74 ppm: fenpropidin 161.740 ppm alone; for pest or weed control at 486.921 ppm: tebuconazole 486.921 ppm alone; for pest or weed control at 841.166 ppm: tebuconazole 841.166 ppm alone; for pest or weed control at 46.795 ppm: epoxiconazole 46.795 ppm alone; for pest or weed control at 89.631 ppm: epoxiconazole 89.631 ppm alone
From the text: The general protocol for preparing test compositions for Test F was as follows: Compound 32, Compound 64, azoxystrobin, benzovindiflupyr, bixafen, chlorothalonil, cyproconazole, epoxiconazole, fenpropidin, fenpropimorph, fluindapyr, flutriafol, fluxapyroxad, metominostrobin, picoxystrobin, prothioconazole, pydiflumetofen, pyraclostrobin, tebuconazole and trifloxystrobin were obtained as unformulated, technical-grade materials. Copper hydroxide and mancozeb was obtained as a formulated product marketed under the trademarks KOCIDE 3000 and MANZATE, respectively. Unformulated materials were first dissolved in acetone and then suspended at the desired concentration (in ppm) in acetone and purified water (50/50 mix by volume) containing 250 ppm of the surfactant Trem® 014 (polyhydric alcohol esters). Formulated materials were dispersed in sufficient water to give the desired concentration, and neither organic solvent nor surfactant was added to the suspension. The resulting test mixtures were then used in Test F. The tests were run on four individual plants and the results reported as the mean average of the four plants.
The presence of a synergistic effect between two active ingredients was established with the aid of the Colby equation (see Colby, S. R. “Calculating Synergistic and Antagonistic Responses of Herbicide Combinations”, Weeds, (1967), 15, 20-22):
Using the method of Colby, the presence of a synergistic interaction between two active ingredients is established by first calculating the predicted activity, p, of the mixture based on activities of the two components applied alone. If p is lower than the experimentally established effect, synergism has occurred. In the equation above, A is the fungicidal activity in percentage control of one component applied alone at rate x. The B term is the fungicidal activity in percentage control of the second component applied at rate y. The equation estimates p, the expected fungicidal activity of the mixture of A at rate x with B at rate y if their effects are strictly additive and no interaction has occurred.
The test mixture was sprayed to the point of run-off on soybean seedlings. The following day the seedlings were inoculated with a spore suspension of Phakopsora pachyrhizi (the causal agent of Asian soybean rust) and incubated in a saturated atmosphere at 22° C. for 24 h and then moved to a growth chamber at 22° C. for 8 days, after which time visual disease ratings were made.
Results for Test F are given in Tables B-1 through I-1 for Compound 32 and Tables B-2 through I-2 for Compound 64. Each table corresponds to a set of evaluations performed together at the same time. In each table, a rating of 100 indicates 100% disease control and a rating of 0 indicates no disease control (relative to the controls). Columns labeled “Obsd” indicate the average of results observed from test run on four individual plants. Columns labeled “Exp” indicate the expected value for each treatment mixture using the Colby equation.

[2] = tested on: Puccinia recondita f. sp. tritici (the causal agent of wheat leaf rust); assay: Test B: preventive spray on wheat seedlings, disease rating (100 = 100% control; * 50 ppm, ** 10 ppm, *** 250 ppm); conditions: 100 = 100% disease control
Procedure, shortened: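 Wheat seedlings sprayed to run-off with compound in acetone/water (50/50) containing 250 ppm PEG400, inoculated next day with Puccinia recondita f. sp. tritici spores. Held 24 h saturated at 20° C, then 6 days at 20° C; disease control rated 0–100 relative to controls.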

[3] = tested on: Phakopsora pachyrhizi (the causal agent of Asian soybean rust); assay: Test A: preventive spray on soybean seedlings, visual disease rating (100 = 100% control; * 50 ppm, ** 10 ppm, *** 250 ppm); conditions: 100 = 100% disease control
Procedure, shortened: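 Soybean seedlings sprayed to run-off with compound suspended in acetone/water with 250 ppm PEG400 surfactant, inoculated next day with P. pachyrhizi spores. Kept 24 h saturated at 22 °C, then 8 days at 22 °C before visual rating of disease control (0-100) relative to controls.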

[4] = Phakopsora pachyrhizi, Table G-1
[5] = Phakopsora pachyrhizi, Table G-2
[6] = Phakopsora pachyrhizi, Table H-1
[7] = Phakopsora pachyrhizi, Table H-2
[8] = Phakopsora pachyrhizi, Table E-2
[9] = Phakopsora pachyrhizi, Table I-1
[10] = Phakopsora pachyrhizi, Table I-2
[11] = Phakopsora pachyrhizi, Table D-1
[12] = Phakopsora pachyrhizi, Table D-2
[13] = Phakopsora pachyrhizi, Table F-1
[14] = Phakopsora pachyrhizi, Table F-2
[15] = 10 ppm test suspension, 0 = no control
[16] = 10 ppm test suspension, wheat seedlings
[17] = 10 ppm test suspension, soybean seedlings
[18] = 50 ppm test suspension, 0 = no control

## CO/C=C(/C(=O)OC)c1ccccc1Oc1cc(Oc2ccccc2C#N)ncn1 [azoxystrobin]
[1]; azoxystrobin 95.873 ppm alone, Table E-1
  Obsd disease control: 70%
[1]; azoxystrobin 95.873 ppm alone, Table E-2
  Obsd disease control: 70%
[1]; azoxystrobin 169.226 ppm alone, Table E-1
  Obsd disease control: 88%
[1]; azoxystrobin 169.226 ppm alone, Table E-2
  Obsd disease control: 88%

## N#Cc1c(Cl)c(Cl)c(Cl)c(C#N)c1Cl [chlorothalonil]
[1]; [4]
  pest or weed control at 138.129 ppm: 59%
  pest or weed control at 222.081 ppm: 85%
[1]; [5]
  pest or weed control at 138.129 ppm: 59%
  pest or weed control at 222.081 ppm: 85%

## COC(=O)N(OC)c1ccccc1COc1ccn(-c2ccc(Cl)cc2)n1 [pyraclostrobin]
[1]; [6]
  pest or weed control at 45.86 ppm: 35%
  pest or weed control at 137.503 ppm: 45%
[1]; [7]
  pest or weed control at 45.86 ppm: 35%
  pest or weed control at 137.503 ppm: 45%

## CNC(=O)/C(=N/OC)c1ccccc1Oc1ccccc1 [metominostrobin]
[1]; [6]
  pest or weed control at 29.673 ppm: 13%
  pest or weed control at 86.003 ppm: 37%
[1]; [7]
  pest or weed control at 29.673 ppm: 13%
  pest or weed control at 86.003 ppm: 37%

## CO/C=C(/C(=O)OC)c1ccccc1COc1cccc(C(F)(F)F)n1 [picoxystrobin]
[1]; picoxystrobin 20.596 ppm alone, Table B-1
  Obsd disease control: 73%
[1]; picoxystrobin 20.596 ppm alone, Table B-2
  Obsd disease control: 73%
[1]; picoxystrobin 33.865 ppm alone, Table B-1
  Obsd disease control: 75%
[1]; picoxystrobin 33.865 ppm alone, Table B-2
  Obsd disease control: 75%

## OC(Cc1ccccc1Cl)(Cn1nc[nH]c1=S)C1(Cl)CC1 (stereo not shown) [prothioconazole]
[1]; [4]
  pest or weed control at 10.165 ppm: 7%
  pest or weed control at 16.339 ppm: 65%
[1]; [5]
  pest or weed control at 10.165 ppm: 7%
  pest or weed control at 16.339 ppm: 65%

## CC(C1CC1)C(O)(Cn1cncn1)c1ccc(Cl)cc1 (stereo not shown) [cyproconazole]
[1]; [8]
  pest or weed control at 37.333 ppm: 44%
  pest or weed control at 64.883 ppm: 68%
[1]; Table E-1
  pest or weed control at 37.333 ppm: 44%
  pest or weed control at 64.883 ppm: 68%

## Cn1cc(C(=O)Nc2cccc3c2[C@@H]2CC[C@H]3C2=C(Cl)Cl)c(C(F)F)n1 (racemic) [benzovindiflupyr]
[1]; benzovindiflupyr 0.606 ppm alone, Table G-1
  Obsd disease control: 67%
[1]; benzovindiflupyr 0.606 ppm alone, Table G-2
  Obsd disease control: 67%
[1]; benzovindiflupyr 0.980 ppm alone, Table G-1
  Obsd disease control: 67%
[1]; benzovindiflupyr 0.980 ppm alone, Table G-2
  Obsd disease control: 67%

## CON(C(=O)c1cn(C)nc1C(F)F)C(C)Cc1c(Cl)cc(Cl)cc1Cl (stereo not shown) [pydiflumetofen]
[1]; pydiflumetofen 41.364 ppm alone, Table H-1
  Obsd disease control: 49%
[1]; pydiflumetofen 41.364 ppm alone, Table H-2
  Obsd disease control: 49%
[1]; pydiflumetofen 70.950 ppm alone, Table F-1
  Obsd disease control: 0%
[1]; pydiflumetofen 70.950 ppm alone, Table F-2
  Obsd disease control: 0%
[1]; pydiflumetofen 128.793 ppm alone, Table H-1
  Obsd disease control: 36%
[1]; pydiflumetofen 128.793 ppm alone, Table H-2
  Obsd disease control: 36%
[1]; pydiflumetofen 135.850 ppm alone, Table F-1
  Obsd disease control: 73%
[1]; pydiflumetofen 135.850 ppm alone, Table F-2
  Obsd disease control: 73%

## CC(Cc1ccc(C(C)(C)C)cc1)CN1CCCCC1 (stereo not shown) [fenpropidin]
[1]; [9]
  pest or weed control at 78.393 ppm: 45%
  pest or weed control at 161.74 ppm: 68%
[1]; [10]
  pest or weed control at 78.393 ppm: 45%
  pest or weed control at 161.74 ppm: 68%

## Cn1cc(C(=O)Nc2ccccc2-c2cc(F)c(F)c(F)c2)c(C(F)F)n1 [fluxapyroxad]
[1]; fluxapyroxad 2.757 ppm alone, Table C-1
  Obsd disease control: 19%
[1]; fluxapyroxad 2.757 ppm alone, Table C-2
  Obsd disease control: 19%
[1]; fluxapyroxad 4.748 ppm alone, Table C-1
  Obsd disease control: 52%
[1]; fluxapyroxad 4.748 ppm alone, Table C-2
  Obsd disease control: 52%

## CC(C)(C)C(O)(CCc1ccc(Cl)cc1)Cn1cncn1 (stereo not shown) [tebuconazole]
[1]; [11]
  pest or weed control at 486.921 ppm: 30%
  pest or weed control at 841.166 ppm: 55%
[1]; [12]
  pest or weed control at 486.921 ppm: 30%
  pest or weed control at 841.166 ppm: 55%

## Fc1ccc([C@]2(Cn3cncn3)O[C@H]2c2ccccc2Cl)cc1 (racemic) [epoxiconazole]
[1]; [13]
  pest or weed control at 46.795 ppm: 23%
  pest or weed control at 89.631 ppm: 70%
[1]; [14]
  pest or weed control at 46.795 ppm: 23%
  pest or weed control at 89.631 ppm: 70%

## COC(COc1cccc(Cn2cc(Br)cn2)c1)(O[Si](C)(C)C)C(F)(F)F (stereo not shown) [compound 385]
[2]; Puccinia recondita, 50 ppm test suspension, 0 = no control
  pest or weed control at 50 ppm: 68%
[3]; Phakopsora pachyrhizi, 50 ppm test suspension, 0 = no control
  pest or weed control at 50 ppm: 100%

## CCO/C(=C\Oc1cccc(Cn2cc(C(=O)OCC(C)=O)cn2)c1)C(F)(F)F [compound 337]
[2]; [15]
  Test B disease control rating: 0%
[3]; [15]
  Test A disease control rating: 100%

## CCOC(=O)C1=NOC(Cc2ccc(OCC3(C(F)(F)F)OCCO3)cc2)C1 (stereo not shown) [compound 289]
[2]; [15]
  Test B disease control rating: 0%
[3]; [15]
  Test A disease control rating: 0%

## CCO/C(=C\Oc1ccc(CC#N)cc1)C(F)(F)F [compound 154]
[2]; [16]
  Test B disease control rating: 0%
[3]; [17]
  Test A disease control rating: 0%

## CCOC(=O)c1cnn(COc2ccc(OCC(O)(O)C(F)(F)F)cc2F)c1 [compound 424]
[2]; Puccinia recondita, 10 ppm test suspension, 0 = no control
  pest or weed control at 10 ppm: 41%
[3]; Phakopsora pachyrhizi, 10 ppm test suspension, 0 = no control
  pest or weed control at 10 ppm: 97%

## N#CCNC(=O)c1cnn(Cc2ccc(OCC3(C(F)(F)F)OCCO3)cc2)c1 [compound 164]
[2]; [16]
  Test B disease control rating: 0%
[3]; [17]
  Test A disease control rating: 31%

## O=C(OCc1ccc(Cl)c(Cl)c1)c1cnn(Cc2ccc(OCC3(C(F)(F)F)OCCO3)cc2)c1 [compound 17]
[2]; [16]
  Test B disease control rating: 0%
[3]; [17]
  Test A disease control rating: 100%

## CCO/C(=C\Oc1ccc(CNC(=O)C(C)C)cc1)C(F)(F)F [compound 210]
[2]; [16]
  Test B disease control rating: 0%
[3]; [17]
  Test A disease control rating: 0%

## CCS(=O)(=O)Cc1ccc(OCC2(C(F)(F)F)OCCO2)cc1 [compound 23]
[2]; [16]
  Test B disease control rating: 19%
[3]; [17]
  Test A disease control rating: 0%

## CCO/C(=C\Oc1ccc(Cn2cc(C(=O)NCC3CC3)cn2)cc1)C(F)(F)F [compound 117]
[2]; [16]
  Test B disease control rating: 0%
[3]; [17]
  Test A disease control rating: 23%

## CCO/C(=C\Oc1ccc(C(=O)NC2CC2)cc1)C(F)(F)F [compound 100]
[2]; [16]
  Test B disease control rating: 0%
[3]; [17]
  Test A disease control rating: 0%

## CCO/C(=C\Oc1ccc(Cn2ccnc2)cc1)C(F)(F)F [compound 156]
[2]; [16]
  Test B disease control rating: 0%
[3]; [17]
  Test A disease control rating: 0%

## CCOC(=O)C1=NOC(Cc2ccc(OC=C(OCC)C(F)(F)F)cc2)C1 (stereo not shown) [compound 287]
[2]; [18]
  Test B disease control rating: 0%
[3]; [18]
  Test A disease control rating: 77%
